Experimental data reported in patent publication US6737383B1, “Herbicidal oxadiazolidines” (priority 1999, dated 2004).

Columns and labels:
lambsquarters = test: Test E lambsquarters; assay type: in vivo, Chenopodium album; details: Preemergence
wild buckwheat = test: Test E wild buckwheat; assay type: in vivo, Polygonum convolvulus; details: Postemergence
Procedure, shortened: (§1)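 Greenhouse-grown plants are treated (postemergence: 1- to 4-leaf stage, sandy loam/potting mix 60:40), then evaluated visually versus untreated controls some 21 to 28 days later.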

jointed goatgrass = test: Test E jointed goatgrass; assay type: in vivo, Aegilops cylindrica; details: Preemergence
green foxtail = test: Test E green foxtail; assay type: in vivo, Setaria viridis; details: Postemergence
Protocol: (§2) Compounds evaluated in this test were formulated in a non-phytotoxic solvent mixture which included a surfactant and applied to plants that were in the 1- to 4-leaf stage (postemergence application). A mixture of sandy loam soil and greenhouse potting mix in a 60:40 ratio was used for the postemergence test.
(§3) Plantings of these crops and weed species were adjusted to produce plants of appropriate size for the postemergence test. All plant species were grown using normal greenhouse practices. Crop and weed species include annual bluegrass (Poa annua), blackgrass (Alopecurus myosuroides), black nightshade (Solanum nigra), chickweed (Stellaria media), common poppy (Papaver rhoeas), deadnettle (Lamium amplexicaule), downy brome (Bromus tectorum), field violet (Viola arvensis), galium (Galium aparine), green foxtail (Setaria viridis), Italian ryegrass (Lolium multiflorum), jointed goatgrass (Aegilops cylindrica), kochia (Kochia scoparia), lambsquarters (Chenopodium album), littleseed canarygrass (Phalaris minor), rape (Brassica napus), redroot pigweed (Amaranthus retroflexus), Russian thistle (Salsola kali), scentless chamomile (Matricaria inodora), spring barley (Hordeum vulgare), sugar beet (Beta vulgaris), sunflower (Helianthus annuus), ivyleaf speedwell (Veronica hederaefolia), spring wheat (Triticum aestivum), winter wheat (Triticum aestivum), wild buckwheat (Polygonum convolvulus), wild mustard (Sinapis arvensis), wild oat (Avena fatua), windgrass (Apera spica-venti) and winter barley (Hordeum vulgare).
(§4) Treated plants and untreated controls were maintained in a greenhouse for approximately 21 to 28 days, after which all treated plants were compared to untreated controls and visually evaluated. […] A dash response (-) means no test result.

littleseed canarygrass [1] = test: Test E littleseed canarygrass; assay type: in vivo, Phalaris minor; details: Preemergence
littleseed canarygrass [2] = test: Test E littleseed canarygrass; assay type: in vivo, Phalaris minor; details: Postemergence
Protocol: as §2, §3, §4

scentless chamomile [3] = test: Test E scentless chamomile; assay type: in vivo, Matricaria inodora; details: Postemergence
Protocol: as §2, §3, §4

spring wheat = test: Test E spring wheat; assay type: in vivo, Triticum aestivum; details: Preemergence
scentless chamomile [4] = test: Test E scentless chamomile; assay type: in vivo, Matricaria inodora; details: Preemergence
sugar beet = test: Test E sugar beet; assay type: in vivo, Beta vulgaris; details: Preemergence
black nightshade = test: Test E black nightshade; assay type: in vivo, Solanum nigra; details: Postemergence
Procedure, shortened: as §1

redroot pigweed = test: Test E redroot pigweed; assay type: in vivo, Amaranthus retroflexus; details: Postemergence
Protocol: as §2, §3, §4

blackgrass = test: Test E blackgrass; assay type: in vivo, Alopecurus myosuroides; details: Postemergence
Procedure, shortened: as §1

spring barley = test: Test E spring barley; assay type: in vivo, Hordeum vulgare; details: Preemergence
field violet = test: Test E field violet; assay type: in vivo, Viola arvensis; details: Preemergence
[5] = Rate 125 g/ha, 0 to 100 scale (0 no effect, 100 complete control)
[6] = Rate 500 g/ha, 0 to 100 scale where 0 is no effect and 100 is complete control
[7] = Rate 250 g/ha, 0 to 100 scale (0 no effect, 100 complete control)
[8] = Rate 500 g/ha, 0 to 100 scale, 0 no effect, 100 complete control

## CC(C)N(C(=O)n1oc(=O)n(C(C)C)c1=O)c1ccc(F)cc1F [Compound 109]
lambsquarters; [5]
  Plant response rating Lambsquarters: 60
lambsquarters; Rate 250 g/ha, 0 to 100 scale
  Plant response rating Lambsquarters: 100
lambsquarters; [6]
  Plant response rating Lambsquarters: 100
Wild buckwheat; Rate 125 g/ha, 0 to 100 scale
  Plant response rating, Wild buckwheat: 10
Wild buckwheat; [7]
  Plant response rating, Wild buckwheat: 20
Wild buckwheat; [8]
  Plant response rating, Wild buckwheat: 10
Jointed goatgrass; [5]
  Plant response rating, Jointed goatgra: 20
Jointed goatgrass; Rate 250 g/ha, 0 to 100 scale
  Plant response rating, Jointed goatgra: 65
Jointed goatgrass; [6]
  Plant response rating, Jointed goatgra: 70
Green foxtail; Rate 125 g/ha, 0 to 100 scale
  Plant response rating, Green foxtail: 30
Green foxtail; [7]
  Plant response rating, Green foxtail: 65
Green foxtail; [8]
  Plant response rating, Green foxtail: 80
Littleseed canarygrass [1]; [5]
  Plant response rating, LS canarygrass: 50
Littleseed canarygrass [1]; Rate 250 g/ha, 0 to 100 scale
  Plant response rating, LS canarygrass: 60
Littleseed canarygrass [1]; [6]
  Plant response rating, LS canarygrass: 50
Littleseed canarygrass [2]; Rate 125 g/ha, 0 to 100 scale
  Plant response rating, LS canarygrass: 25
Littleseed canarygrass [2]; [7]
  Plant response rating, LS canarygrass: 50
Littleseed canarygrass [2]; [8]
  Plant response rating, LS canarygrass: 65
Scentless chamomile [3]; Rate 125 g/ha, 0 to 100 scale
  Plant response rating, Scentless chamo: 0
Scentless chamomile [3]; [7]
  Plant response rating, Scentless chamo: 0
Scentless chamomile [3]; [8]
  Plant response rating, Scentless chamo: 10
Spring wheat; [5]
  Plant response rating, Spring Wheat: 20
Spring wheat; Rate 250 g/ha, 0 to 100 scale
  Plant response rating, Spring Wheat: 40
Spring wheat; [6]
  Plant response rating, Spring Wheat: 50
Scentless chamomile [4]; [5]
  Plant response rating, Scentless chamo: 0
Scentless chamomile [4]; Rate 250 g/ha, 0 to 100 scale
  Plant response rating, Scentless chamo: 30
Scentless chamomile [4]; [6]
  Plant response rating, Scentless chamo: 30
Sugar beet; [5]
  Plant response rating, Sugar beet: 0
Sugar beet; Rate 250 g/ha, 0 to 100 scale
  Plant response rating, Sugar beet: 60
Sugar beet; [6]
  Plant response rating, Sugar beet: 70
Black nightshade; Rate 125 g/ha, 0 to 100 scale
  Plant response rating, Blk nightshade: 40
Black nightshade; [7]
  Plant response rating, Blk nightshade: 40
Black nightshade; [8]
  Plant response rating, Blk nightshade: 60
Redroot pigweed; Rate 125 g/ha, 0 to 100 scale
  Plant response rating, Redroot pigweed: 20
Redroot pigweed; [7]
  Plant response rating, Redroot pigweed: 15
Redroot pigweed; [8]
  Plant response rating, Redroot pigweed: 15
blackgrass; Rate 125 g/ha, 0 to 100 scale
  Plant response rating, Blackgrass: 30
blackgrass; [7]
  Plant response rating, Blackgrass: 10
blackgrass; [8]
  Plant response rating, Blackgrass: 70
Spring barley; [5]
  Plant response rating, Spring Barley: 5
Spring barley; Rate 250 g/ha, 0 to 100 scale
  Plant response rating, Spring Barley: 20
Spring barley; [6]
  Plant response rating, Spring Barley: 50
Field violet; [5]
  Plant response rating, Field violet: 50
Field violet; Rate 250 g/ha, 0 to 100 scale
  Plant response rating, Field violet: 15
Field violet; [6]
  Plant response rating, Field violet: 20
